The source of these data is publication PMC4510645, “Discovery of intramolecular trans-sialidases in human gut microbiota suggests novel mechanisms of mucosal adaptation” (Nature Communications, 2015).

A short description of series [1]: Spontaneous interconversion of 2,7-anhydro-Neu5Ac and Neu5Ac by 1H NMR. It counts as physicochemical. The following applies: up to 24 h at 37 °C. The method, then: The products of the reaction were thus further monitored by ^1H nuclear magnetic resonance (NMR). […] (Fig. 3). These peaks are characteristic of 2,7-anhydro-α-N-acetylneuraminic acid (2,7-anhydro-Neu5Ac) and arise from the protons in positions 6 and 7 (Fig. 3a). Peaks corresponding to 2,7-anhydro-Neu5Ac were observed when RgNanH was incubated in presence of 4MU-Neu5Ac (Fig. 3a) or 3′SL (Fig. 3b). […] The signals of 2,7-anhydro-Neu5Ac and their chemical shifts are shown in Supplementary Table 1. This product was absent in control experiments using A. muciniphila sialidases (AkmNan0625 and AkmNan1835) or in absence of enzyme, confirming the specificity of the enzymatic reaction (Supplementary Fig. 5).
Extracts (400 μl) were mixed with 200 μl of D2O and 20 μl of a solution of D2O containing 1 mM of TSP (sodium 3-(trimethylsilyl)-propionate-d4). Samples (500 μl) were transferred into a 5-mm NMR tube for spectral acquisition. The ^1H NMR spectra were recorded at 600 MHz on a Bruker Avance spectrometer (Bruker BioSpin GmbH, Rheinstetten, Germany) running Topspin 2.0 software, and were fitted with a cryoprobe and a 60-slot autosampler. Each ^1H NMR spectrum was acquired with 128 scans, a spectral width of 8,012.8 Hz, an acquisition time of 2.04 s and a relaxation delay of 2.0 s. […]

The next series addresses T1, RgNanH (Mediterraneibacter gnavus (Ruminococcus gnavus), UniProt A7B557).
T1 sequence (A7B557 26-723): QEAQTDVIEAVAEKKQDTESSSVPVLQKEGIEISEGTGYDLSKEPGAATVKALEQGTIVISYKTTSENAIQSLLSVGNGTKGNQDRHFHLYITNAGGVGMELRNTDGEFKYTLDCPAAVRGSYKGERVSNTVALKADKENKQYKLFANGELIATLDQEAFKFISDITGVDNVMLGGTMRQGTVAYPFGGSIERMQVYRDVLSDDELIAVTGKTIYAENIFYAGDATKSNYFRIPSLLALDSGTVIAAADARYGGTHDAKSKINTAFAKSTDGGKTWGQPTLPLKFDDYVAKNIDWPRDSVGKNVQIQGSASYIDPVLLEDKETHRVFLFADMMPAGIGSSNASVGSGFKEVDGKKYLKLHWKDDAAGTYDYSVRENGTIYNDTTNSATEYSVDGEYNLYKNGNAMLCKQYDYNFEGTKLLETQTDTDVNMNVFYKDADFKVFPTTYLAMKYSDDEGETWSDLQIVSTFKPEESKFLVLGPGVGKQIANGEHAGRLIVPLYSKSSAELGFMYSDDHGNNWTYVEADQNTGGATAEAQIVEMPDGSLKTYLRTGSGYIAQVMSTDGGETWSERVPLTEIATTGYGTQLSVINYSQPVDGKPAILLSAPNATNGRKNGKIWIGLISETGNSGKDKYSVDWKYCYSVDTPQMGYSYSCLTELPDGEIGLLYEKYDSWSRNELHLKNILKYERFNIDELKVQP
As to the kind of experiment: Inhibition of RgNanH activity against 4MU-Neu5Ac by neuraminidase inhibitors. The following applies: 4MU-Neu5Ac 0.51 mM, 1 nM enzyme; Neu5Ac 0-0.3 mM, Lac 0-1.5 mM; pH 6.5, 37 °C. It counts as biochemical, Ruminococcus gnavus ATCC 29149. The method, then:
Figure 1 Kinetic analysis of the hydrolysis of sialylated substrates by RgNanH in presence or absence of inhibitors. Substrate (a) 4MU-Neu5Ac or (b) PNP-Neu5Ac was incubated with RgNanH ([…] and 0.43 nM, respectively) at 37 °C, pH 6.5 and the release of product measured using a plate reader. (c) Inhibition of RgNanH (1.00 nM) incubated with 4MU-Neu5Ac (0.51 mM) by zanamivir (●), Neu5Ac2en (▪), siastatin B (▴) and OC (♦), the rates are normalized to a % of the uninhibited rate. [I] is the inhibitor concentration. (d) 3′SL was incubated with RgNanH (2.25 nM) and the release of product measured by HPAEC-PAD. Experiments were done at least in duplicate (usually triplicate) and the error bars show the s.e.m.
The purified enzymes were incubated with the substrate in buffer made from 20 mM Na2HPO4 and 20 mM NaH2PO4 adjusted to pH 6.5 containing 1 mg ml^−1 BSA at 37 °C unless otherwise stated. For 4MU-Neu5Ac, the progression of the reaction was monitored by the release of the MU using a 96-well plate reader (BMG Labtech, Ortenberg, Germany) using fluorescence with an excitation at 340 nm and an emission at 420 nm. For determining the optimal temperature, the assay was carried out in 20 mM PBS at pH 7.4. For determining the optimal pH, the assay was carried out at 37 °C using buffer made from 20 mM Na2HPO4 and 20 mM NaH2PO4 in varying proportions to obtain the desired pH. PNP release from PNP-Neu5Ac was monitored in a similar way measuring absorbance at 405 nm every 60 s. For 3′SL, the reaction was monitored by HPAEC-PAD. An aliquot of the reaction was removed from the main reaction volume at the reaction stopped by boiling for 20 min, the enzyme was then removed by centrifugation at 17,000g for 10 min and filtration with a 0.2-μm filter (Millipore, Billerica, USA). The sugars were separated by HPAEC with an isocratic gradient of 100 mM NaOH and 100 mM NaAC at 1 ml min^−1 on a CarboPac PA1 protected with a guard column and detected using PAD on a Dionex ICS5000 system (Thermo Scientific, Hemel Hempstead, UK). The column was cleaned with 10 ml of 500 mM NaOH and 500 mM NaAc, and the column was re-equilibrated with 100 mM NaOH and 100 mM NaAc. An internal standard of fucose was used to quantify the results. […]

For a further series, the system named is R. gnavus ATCC 29149. Also on record: method as in PMID 24204617. The following applies: cited from earlier work.

Turning to `CC(=O)N[C@H]1[C@H]([C@H](O)[C@H](O)CO)OC(O)(C(=O)O)C[C@@H]1O` (stereo partly shown) [Neu5Ac, sialic acid], the “spontaneous conversion between 2,7-anhydro-Neu5Ac and Neu5Ac” value in series [1] was “no evidence of spontaneous conversion”. The “Inhibition of RgNanH” value at RgNanH is “not inhibited”. Moreover, the “ability of the bacteria to grow on the substrate” value with R. gnavus ATCC 29149 (R. gnavus ATCC 29149) is recorded as “not”. Besides, in the series with R. gnavus ATCC 29149 (R. gnavus ATCC 29149 and E1), the “growth on sole carbon source” value is “could not grow”.
